How the values were obtained:
Type in all cases: biochemical
human FAK = biological target: T1, human FAK (Homo sapiens, UniProt Q05397); experiment: FAK autophosphorylation inhibition, time resolved fluorescence (HTRF) assay; conditions: 10 μM (values without asterisk); read-out: FAK % inhib at 10 μM
T1 construct: The complete cDNA of human FAK; made in house; host or cells: baculovirus expression system (vector pFastBac HTc)
How it was run: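 His-tagged full-length human FAK from baculovirus (6.6 µg/ml) self-phosphorylates with 15 µM ATP in HEPES pH 7.2, MgCl2, vanadate, 1 h at 37 °C. HTRF detection (Eu-anti-phosphotyrosine / XL665-anti-His), 665/620 nm ratio; % inhibition vs untreated control, duplicate mean.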

human KDR enzyme = biological target: T2, human KDR enzyme (Homo sapiens, UniProt P35968); experiment: KDR substrate (PLCγ) phosphorylation, scintillation assay; conditions: 10 μM; read-out: KDR % inhib at 10 μM
T2 construct: The cytoplasmic domain of the human KDR enzyme; GST; made in house; host or cells: SF21 insect cells (baculovirus)
How it was run: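 GST-fused human KDR cytoplasmic domain from SF21 cells (about 60% pure, 100 ng) phosphorylated 2 μg of GST-PLCγ SH2-SH3 fragment. The trigger solution held γ33P-ATP with 2 μM cold ATP, in MOPS buffer pH 7.2 with Mg2+, Mn2+, vanadate and NaF. Reactions ran 1 h at 37 °C, were stopped with EDTA and counted by scintillation; results are % inhibition versus the no-compound control.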

Aurora2 kinase = biological target: T3, Aurora2 kinase (Homo sapiens, UniProt O14965); experiment: Aurora2 kinase radioactivity scintillation assay using nickel chelate (NuMA substrate); conditions: 10 μM; read-out: Aurora2 % inhib at 10 μM
T3 construct: A complete recombinant Aurora2 enzyme; His tag (N); made in house; host or cells: E. coli
T3 sequence (O14965 1-403): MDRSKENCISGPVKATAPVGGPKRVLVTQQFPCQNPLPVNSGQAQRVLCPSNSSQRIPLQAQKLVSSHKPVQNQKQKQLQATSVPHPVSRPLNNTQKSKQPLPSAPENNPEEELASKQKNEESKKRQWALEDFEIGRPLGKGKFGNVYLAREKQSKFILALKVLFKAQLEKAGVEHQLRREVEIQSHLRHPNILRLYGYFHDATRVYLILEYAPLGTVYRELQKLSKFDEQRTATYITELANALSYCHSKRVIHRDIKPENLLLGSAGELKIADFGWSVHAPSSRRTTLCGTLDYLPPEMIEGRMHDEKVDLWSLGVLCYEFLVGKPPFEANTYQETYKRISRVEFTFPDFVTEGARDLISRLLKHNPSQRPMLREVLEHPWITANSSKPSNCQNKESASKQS
How it was run: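 His-tagged full-length Aurora2 (0.02 μM, E. coli) phosphorylating His-tagged NuMA C-terminal fragment (0.5 μM) with 1 μM ATP plus [33P]-ATP, 30 min at 37 °C, pH 7.5 Tris buffer with MgCl2. Nickel-chelate scintillation read; percent inhibition versus no-compound control.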

[1] = biological target: T4, human IGF1R cytoplasmic domain (Homo sapiens, UniProt P08069); experiment: IGF1R autophosphorylation inhibition, time resolved fluorescence (HTRF) assay; conditions: 10 μM; read-out: IGF1R % inhib at 10 μM
T4 construct: The human IGF1R cytoplasmic domain was cloned; made in house; host or cells: SF21 insect cells (baculovirus)
Method: The inhibitory activity of the compounds on IGF1R is determined by measuring the inhibition of the autophosphorylation of the enzyme using a time resolved fluorescence (HTRF) assay.
The human IGF1R cytoplasmic domain was cloned, as a fusion with glutathione S-transferase (GST), into the baculovirus expression vector pFastBac-GST. The protein was expressed in SF21 cells and purified to approximately 80% homogeneity.
The kinase activity was determined by incubating the enzyme with various concentrations of test compound in a 50 mM Hepes buffer, pH 7.5, containing 5 mM MnCl2, 50 mM NaCl, 3% glycerol, 0.025% Tween […] of ATP. The enzyme reaction is stopped by adding 100 mM Hepes buffer, pH 7.0, containing 0.4 M KF, 133 mM EDTA and 0.1% BSA containing an anti-GST antibody labeled with XL665 and an antiphosphotyrosine antibody conjugated to europium cryptate (Eu-K). The characteristics of the two fluorophores, XL-665 and Eu-K, are available in G. Mathis et al., Anticancer Research, 1997, 17, pages 3011-3014. The transfer of energy from the excited europium cryptate to the acceptor XL665 is proportional to the degree of autophosphorylation of IGF1R. The long-lived signal specific for XL-665 is measured in a Victor analyzer plate counter (Perkin-elmer). The inhibition of the IGF1R autophosphorylation activity with compounds of the invention is expressed as percentage inhibition compared to a control whose activity is measured in the absence of test compound.

T1 sequence (Q05397 whole entry): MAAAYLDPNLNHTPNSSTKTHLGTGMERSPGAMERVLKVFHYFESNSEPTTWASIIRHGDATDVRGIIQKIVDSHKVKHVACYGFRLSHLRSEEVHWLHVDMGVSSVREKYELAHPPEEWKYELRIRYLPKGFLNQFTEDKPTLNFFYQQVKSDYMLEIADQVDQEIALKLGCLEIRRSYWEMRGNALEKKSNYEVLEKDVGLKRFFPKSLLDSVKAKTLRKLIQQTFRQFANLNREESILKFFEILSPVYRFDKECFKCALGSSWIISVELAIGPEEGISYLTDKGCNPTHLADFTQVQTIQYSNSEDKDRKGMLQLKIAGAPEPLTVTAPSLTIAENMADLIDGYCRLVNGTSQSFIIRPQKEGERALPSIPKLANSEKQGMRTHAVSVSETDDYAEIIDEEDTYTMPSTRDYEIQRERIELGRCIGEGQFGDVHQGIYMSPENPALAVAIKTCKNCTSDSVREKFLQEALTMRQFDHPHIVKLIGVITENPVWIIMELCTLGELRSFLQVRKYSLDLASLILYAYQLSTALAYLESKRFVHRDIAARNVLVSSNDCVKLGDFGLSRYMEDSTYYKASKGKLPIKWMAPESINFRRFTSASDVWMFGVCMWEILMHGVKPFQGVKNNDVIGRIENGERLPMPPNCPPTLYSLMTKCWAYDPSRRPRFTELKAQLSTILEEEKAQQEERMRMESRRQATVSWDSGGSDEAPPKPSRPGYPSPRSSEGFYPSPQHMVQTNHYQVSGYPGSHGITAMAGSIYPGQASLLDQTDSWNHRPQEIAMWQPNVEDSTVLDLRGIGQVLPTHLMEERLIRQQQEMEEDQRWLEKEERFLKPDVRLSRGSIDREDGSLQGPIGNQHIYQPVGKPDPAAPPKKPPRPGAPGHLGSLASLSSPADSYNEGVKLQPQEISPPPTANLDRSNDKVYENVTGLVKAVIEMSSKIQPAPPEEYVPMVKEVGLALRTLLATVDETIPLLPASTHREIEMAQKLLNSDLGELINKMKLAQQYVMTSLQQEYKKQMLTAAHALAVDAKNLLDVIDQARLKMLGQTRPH
T2 sequence (P35968 786-1356 limits assumed): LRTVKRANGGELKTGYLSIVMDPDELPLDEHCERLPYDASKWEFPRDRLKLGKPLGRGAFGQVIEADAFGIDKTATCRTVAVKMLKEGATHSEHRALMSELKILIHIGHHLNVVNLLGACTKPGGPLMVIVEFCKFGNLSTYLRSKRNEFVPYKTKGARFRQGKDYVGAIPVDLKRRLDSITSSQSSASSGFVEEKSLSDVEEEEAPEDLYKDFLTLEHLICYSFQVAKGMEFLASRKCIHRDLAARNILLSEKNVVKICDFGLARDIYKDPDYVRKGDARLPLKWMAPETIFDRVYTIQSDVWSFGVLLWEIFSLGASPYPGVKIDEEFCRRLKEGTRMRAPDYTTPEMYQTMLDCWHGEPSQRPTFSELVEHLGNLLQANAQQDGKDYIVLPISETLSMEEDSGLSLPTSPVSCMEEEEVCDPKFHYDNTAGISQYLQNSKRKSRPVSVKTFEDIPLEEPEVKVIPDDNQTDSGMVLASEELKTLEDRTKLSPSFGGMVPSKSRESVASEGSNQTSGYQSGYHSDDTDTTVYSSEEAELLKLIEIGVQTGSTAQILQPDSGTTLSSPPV
T4 sequence (P08069 960-1367 limits assumed): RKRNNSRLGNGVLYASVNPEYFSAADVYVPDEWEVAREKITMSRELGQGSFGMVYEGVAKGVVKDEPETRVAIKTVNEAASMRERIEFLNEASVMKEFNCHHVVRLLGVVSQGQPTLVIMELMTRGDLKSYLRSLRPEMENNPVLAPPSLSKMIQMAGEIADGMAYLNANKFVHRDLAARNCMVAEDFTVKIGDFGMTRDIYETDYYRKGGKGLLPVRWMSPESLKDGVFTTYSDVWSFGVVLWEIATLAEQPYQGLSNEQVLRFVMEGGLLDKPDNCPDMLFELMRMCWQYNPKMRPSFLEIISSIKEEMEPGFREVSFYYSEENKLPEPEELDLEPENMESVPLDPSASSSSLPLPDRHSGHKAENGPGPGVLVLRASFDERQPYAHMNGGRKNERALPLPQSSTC

| Structure (SMILES) | inhibition at 10 µM (human FAK) [%] | inhibition at 10 µM (human KDR enzyme) [%] | inhibition at 10 µM (Aurora2 kinase) [%] | inhibition at 10 µM [1] [%] |
| --- | --- | --- | --- | --- |
| O=S(=O)(Nc1ccc2[nH]nc(-c3cc4ccccc4[nH]3)c2c1)c1ccccc1 [Example 82, N-[3-(1H-Indol-2-yl)-1H-indazol-5-yl]benzenesulfonamide] | 93 | 100 | 100 | 100 |
| CC(C)c1cccc(-c2n[nH]c3ccc(NS(=O)(=O)c4ccccc4S(C)(=O)=O)cc23)c1 [Example 203, N-[3-(3-Isopropylphenyl)-1H-indazol-5-yl]-2-methanesulfonyl-benzenesulfonamide] | 86 | 39 | 84 | 59 |
| COc1ccc(-c2n[nH]c3ccc(NS(=O)(=O)c4ccccc4S(C)(=O)=O)cc23)c(OC)c1OC [Example 214, 2-Methanesulfonyl-N-[3-(2,3,4-trimethoxyphenyl)-1H-indazol-5-yl]-benzenesulfonamide] | 60 | 56 | 67 | 21 |
| CCCCS(=O)(=O)Nc1ccc2[nH]nc(-c3ccccc3)c2c1 [Example 129, N-(3-Phenyl-1H-indazol-5-yl)-butanesulfonamide] | 46 | 58 | 64 | 30 |
| CS(=O)(=O)c1ccccc1S(=O)(=O)Nc1ccc2[nH]nc(-c3cccc(Cl)c3Cl)c2c1 [Example 208, N-[3-(2,3-Dichlorophenyl)-1H-indazol-5-yl]-2-methanesulfonyl-benzenesulfonamide] | -1 | 25 | 56 | 0 |
| CS(=O)(=O)c1ccccc1S(=O)(=O)Nc1ccc2[nH]nc(-c3cccc([N+](=O)[O-])c3)c2c1 [Example 162, 2-Methanesulfonyl-N-[3-(3-nitrophenyl)-1H-indazol-5-yl]-benzenesulfonamide] | 97 | 57 | 91 | 82 |
| CS(=O)(=O)c1ccccc1S(=O)(=O)Nc1ccc2[nH]nc(NC(=O)c3ccccc3)c2c1 [Example 45, N-[5-(2-Methylsulfonylbenzenesulfonylamino)-1H-indazol-3-yl]benzamide] | 100 | 55 | 95 | 95 |
| CS(=O)(=O)c1ccccc1S(=O)(=O)Nc1ccc2[nH]nc(-c3ccc(Cl)s3)c2c1 [Example 181, N-[3-(5-Chlorothiophen-2-yl)-1H-indazol-5-yl]-2-methanesulfonyl-benzenesulfonamide] | 83 | 49 | 94 | 55 |

Other lines, results leading:

| inhibition at 10 µM (human FAK) [%] | inhibition at 10 µM (human KDR enzyme) [%] | inhibition at 10 µM (Aurora2 kinase) [%] | inhibition at 10 µM [1] [%] | Structure (SMILES) |
| --- | --- | --- | --- | --- |
| 97 | 67 | 95 | 78 | Cc1ccc(-c2n[nH]c3ccc(NS(=O)(=O)c4ccccc4S(C)(=O)=O)cc23)cc1N [Example 204, N-[3-(3-Amino-4-methyl-phenyl)-1H-indazol-5-yl]-2-methanesulfonyl-benzenesulfonamide] |
| 62 | 60 | 69 | 41 | CS(=O)(=O)c1ccccc1S(=O)(=O)Nc1ccc2[nH]nc(-c3ccc(-c4ccccc4)cc3)c2c1 [Example 170, N-(3-Biphenyl-4-yl-1H-indazol-5-yl)-2-methanesulfonyl-benzenesulfonamide] |
| 80 | 68 | 89 | 77 | CCSc1ccc(-c2n[nH]c3ccc(NS(=O)(=O)c4ccccc4S(C)(=O)=O)cc23)cc1 [Example 213, N-[3-(4-Ethylsulfanylphenyl)-1H-indazol-5-yl]-2-methanesulfonyl-benzenesulfonamide] |
| 94 | 49 | 92 | 66 | Cc1cc(-c2n[nH]c3ccc(NS(=O)(=O)c4ccccc4S(C)(=O)=O)cc23)ccc1F [Example 222, N-[3-(4-Fluoro-3-methyl-phenyl)-1H-indazol-5-yl]-2-methanesulfonyl-benzenesulfonamide] |
| 85 | 75 | 97 | 73 | CS(=O)(=O)c1ccccc1S(=O)(=O)Nc1ccc2[nH]nc(-c3ccc4[nH]ccc4c3)c2c1 [Example 104, N-[3-(1H-indol-5-yl)-1H-indazol-5-yl]-2-methylsulfonylbenzenesulfonamide] |
| 61 | 25 | 40 | 19 | CSc1ccccc1-c1n[nH]c2ccc(NS(=O)(=O)c3ccccc3S(C)(=O)=O)cc12 [Example 103, 2-methylsulfonyl-N-[3-(2-methylsulfanylphenyl)-1H-indazol-5-yl]benzenesulfonamide] |
| 25 | 40 | 59 | 20 | CS(=O)(=O)c1ccccc1S(=O)(=O)Nc1ccc2[nH]nc(-c3ccc(Oc4ccccc4)cc3)c2c1 [Example 171, 2-Methanesulfonyl-N-[3-(4-phenoxyphenyl)-1H-indazol-5-yl]benzenesulfonamide] |
| 62 | 32 | 77 | 27 | CS(=O)(=O)c1ccccc1S(=O)(=O)Nc1ccc2[nH]nc(-c3ccccc3-c3ccccc3)c2c1 [Example 173, N-(3-Biphenyl-2-yl-1H-indazol-5-yl)-2-methanesulfonyl-benzenesulfonamide] |
| 95 | 44 | 90 | 67 | COc1cccc(-c2n[nH]c3ccc(NS(=O)(=O)c4ccccc4S(C)(=O)=O)cc23)c1 [Example 178, 2-Methanesulfonyl-N-[3-(3-methoxyphenyl)-1H-indazol-5-yl]benzenesulfonamide] |
| 91 | 47 | 91 | 75 | Cc1ccc(-c2n[nH]c3ccc(NS(=O)(=O)c4ccccc4S(C)(=O)=O)cc23)cc1C [Example 195, 2-Methanesulfonyl-N-[3-(3,4-dimethylphenyl)-1H-indazol-5-yl]benzenesulfonamide] |
| 91 | 44 | 90 | 77 | CS(=O)(=O)c1ccccc1S(=O)(=O)Nc1ccc2[nH]nc(-c3ccc(F)c(Cl)c3)c2c1 [Example 167, N-[3-(3-Chloro-4-fluoro-phenyl)-1H-indazol-5-yl]-2-methanesulfonyl-benzenesulfonamide] |
| 55 | 34 | 67 | 16 | CS(=O)(=O)c1ccccc1S(=O)(=O)Nc1ccc2[nH]nc(-c3ccc(OCc4ccccc4)cc3)c2c1 [Example 209, N-[3-(4-Benzyloxyphenyl)-1H-indazol-5-yl]-2-methanesulfonyl-benzenesulfonamide] |
